Measured values as given in the supplement of paper PMC11061612.

Key:
[1] = compound: N#Cc1cnc(Nc2cc(NC[C@H]3CNCCO3)c(C(F)(F)F)cn2)cn1 [SRA737]; settings: max 10 µM
Outline: (§1)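 Cancer cell lines were plated in 1536-well plates in 7.5 μl of DMEM/F12 or RPMI with 10% FBS and kept 24 hours at 37°C and 5% CO2 before 72 hours of dosing, with final DMSO typically 0.2%. CellTiter-Glo 2.0 luminescence measured viability, scaled between blank-well and DMSO-well means. Dose responses were fitted to a two-parameter logistic curve with a non-linear mixed effects model. This fit gives the single-agent IC50.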

[2] = compound: CC1(C)CCC(CN2CCN(c3ccc(C(=O)NS(=O)(=O)c4ccc(NCC5CCOCC5)c([N+](=O)[O-])c4)c(Oc4cnc5[nH]ccc5c4)c3)CC2)=C(c2ccc(Cl)cc2)C1 [Venetoclax]; settings: max 1 µM
Outline: as §1

[3] = compound: C=CCn1c(=O)c2cnc(Nc3ccc(N4CCN(C)CC4)cc3)nc2n1-c1cccc(C(C)(C)O)n1 [AZD1775]; settings: max 3 µM
Outline: as §1

[4] = compound: COc1cc([C@@H]2c3cc4c(cc3[C@@H](O[C@@H]3O[C@@H]5CO[C@@H](C)O[C@H]5[C@H](O)[C@H]3O)[C@H]3COC(=O)[C@H]23)OCO4)cc(OC)c1O [Etoposide]; settings: max 10 µM
Outline: as §1

[5] = compound: CC1=C(C(=CC=C1)Cl)NC(=O)C2=CN=C(S2)NC3=CC(=NC(=N3)C)N4CCN(CC4)CCO [Dasatinib]; settings: max 2 µM
Outline: as §1

[6] = compound: CN(CC[C@H](CSC1=CC=CC=C1)NC2=C(C=C(C=C2)S(=O)(=O)NC(=O)C3=CC=C(C=C3)N4CCC(CC4)[C@H](C5=CC=CC=C5C6=CC=C(C=C6)Cl)O)S(=O)(=O)C(F)(F)F)CCO [AZD4320]; settings: max 1 µM
Outline: as §1

[7] = compound: CN(C)CCCOc1ccc(-c2ccc3ncc4c(c3c2)n(C2CCOCC2)c(=O)n4C)cn1 [AZD0156]; settings: max 3 µM
Outline: as §1

[8] = compound: Cn1cnc2c(F)c(Nc3ccc(Br)cc3Cl)c(C(=O)NOCCO)cc21 [Selumetinib]; settings: max 10 µM
Outline: as §1

[9] = compound: C1CN(CCC1(C(=O)N[C@@H](CCO)C2=CC=C(C=C2)Cl)N)C3=NC=NC4=C3C=CN4 [AZD5363]; settings: max 10 µM
Outline: as §1

[10] = compound: Cc1c2c(nn1C)CSCc1cc(n(C)n1)CSc1cc(c3ccccc3c1)OCCCc1c(C(=O)O)n(C)c3c-2c(Cl)ccc13 [AZD5991]; settings: max 1 µM
Outline: as §1

[11] = compound: O=c1[nH]cc(F)c(=O)[nH]1 [5-Fluorouracil]; settings: max 20 µM
Outline: as §1

[12] = compound: COc1cc(Nc2ncc3c(n2)-c2ccc(Cl)cc2C(c2c(F)cccc2OC)=NC3)ccc1C(=O)O [Alisertib]; settings: max 10 µM
Outline: as §1

[13] = compound: CCN(CCO)CCCOc1ccc2c(Nc3cc(CC(=O)Nc4cccc(F)c4)[nH]n3)ncnc2c1 [AZD2811]; settings: max 1 µM
Outline: as §1

[14] = compound: C[C@@H](Oc1cc(-c2cnn(C3CCNCC3)c2)cnc1N)c1c(Cl)ccc(F)c1Cl [Crizotinib]; settings: max 10 µM
Outline: as §1

[15] = compound: COc1cccc2c1C(=O)c1c(O)c3c(c(O)c1C2=O)C[C@@](O)(C(=O)CO)C[C@@H]3O[C@H]1C[C@H](N)[C@H](O)[C@H](C)O1 [Doxorubicin]; settings: max 1 µM
Outline: as §1

[16] = compound: NC1(c2ccc(-c3nc4ccn5c(=O)[nH]nc5c4cc3-c3ccccc3)cc2)CCC1 [MK-2206]; settings: max 10 µM
Outline: as §1

[17] = compound: CC(=O)Nc1cccc(-n2c(=O)n(C3CC3)c(=O)c3c(Nc4ccc(I)cc4F)n(C)c(=O)c(C)c32)c1 [Trametinib]; settings: max 1 µM
Outline: as §1

[18] = compound: CC(=O)c1c(C)c2cnc(Nc3ccc(N4CCNCC4)cn3)nc2n(C2CCCC2)c1=O [Palbociclib]; settings: max 10 µM
Outline: as §1

[19] = compound: C[C@@H](c1ccc2nccn2c1)n1nnc2ncc(-c3cnn(C)c3)nc21 [Savolitinib]; settings: max 1 µM
Outline: as §1

[20] = compound: C1CC(C1)(C(=O)[O-])C(=O)[O-].N.N.[Pt+2] [Carboplatin]; settings: max 10 µM
Outline: as §1

[21] = compound: O=C(Nc1ccc2[nH]nc(-c3ccncc3)c2c1)[C@@H]1CCN(CC(=O)N2CCN(c3ccc(-c4ncccn4)cc3)CC2)C1; settings: max 5 µM
Outline: as §1

[22] = compound: COc1nnc2ccc(N3CCC(c4ccc(OCCN5CCN(C)C(=O)[C@H]5C)cc4)CC3)nn12 [AZD5153]; settings: max 1 µM
Outline: as §1

[23] = compound: COc1cc2ncnc(Nc3ccc(F)c(Cl)c3)c2cc1OCCCN1CCOCC1 [Gefitinib]; settings: max 10 µM
Outline: as §1

[24] = compound: Cc1nc(-c2cn3c(n2)-c2ccc(-c4cnn(C(C)(C)C(N)=O)c4)cc2OCC3)n(C(C)C)n1 [Taselisib]; settings: max 10 µM
Outline: as §1

[25] = compound: O=C(c1cc(Cc2n[nH]c(=O)c3ccccc23)ccc1F)N1CCN(C(=O)C2CC2)CC1 [Olaparib]; settings: max 10 µM
Outline: as §1

[26] = compound: Cc1cc2ncnn2cc1Nc1ncc2c(n1)n(C1CCOCC1)c(=O)n2C [AZD7648]; settings: max 10 µM
Outline: as §1

[27] = compound: CS(=O)(=O)CCNCc1ccc(-c2ccc3ncnc(Nc4ccc(OCc5cccc(F)c5)c(Cl)c4)c3c2)o1 [Lapatinib]; settings: max 10 µM
Outline: as §1

[28] = compound: CC(=O)O[C@H]1C(=O)[C@@]2(C)[C@H]([C@H](OC(=O)c3ccccc3)[C@]3(O)C[C@H](OC(=O)[C@H](O)[C@@H](NC(=O)c4ccccc4)c4ccccc4)C(C)=C1C3(C)C)[C@]1(OC(C)=O)CO[C@@H]1C[C@@H]2O [Paclitaxel]; settings: max 3 µM
Outline: as §1

[29] = compound: COc1cccc(OCCCN)c1-c1cc(Nc2cnc(C#N)cn2)n[nH]1 [Prexasertib]; settings: max 1 µM
Outline: as §1

[30] = compound: CC(C)n1c(=O)n(C)c2cnc3cc(F)c(-c4ccc(OCCCN5CCCCC5)nc4)cc3c21 [AZD1390]; settings: max 0.3 µM
Outline: as §1

[31] = compound: CCc1c2c(nc3ccc(O)cc13)-c1cc3c(c(=O)n1C2)COC(=O)[C@]3(O)CC [SN-38]; settings: max 0.3 µM
Outline: as §1

[32] = compound: C[C@@H](Nc1cc(F)cc(F)c1)c1cc(C(=O)N(C)C)cc2c(=O)cc(N3CCOCC3)oc12 [AZD8186]; settings: max 10 µM
Outline: as §1

[33] = compound: CC1=CN2[C@@H](C1)C=NC3=CC(=C(C=C3C2=O)OC)OCCCCCOC4=C(C=C5C(=C4)N=C[C@@H]6CC(=CN6C5=O)C)OC [SG3199]; settings: max 0.001 µM
Outline: as §1

[34] = compound: C[C@@H]1COCCN1C2=NC(=NC(=C2)C3(CC3)[S@](=N)(=O)C)C4=C5C=CNC5=NC=C4 [AZD6738]; settings: max 10 µM
Outline: as §1

[35] = compound: Nc1ccn([C@@H]2O[C@H](CO)[C@@H](O)C2(F)F)c(=O)n1 [Gemcitabine]; settings: max 0.3 µM
Outline: as §1

Cell Line	IC50, cell viability 72 h [1] [nM]	IC50, cell viability 72 h [2] [nM]	IC50, cell viability 72 h [3] [nM]	IC50, cell viability 72 h [4] [nM]	IC50, cell viability 72 h [5] [nM]	IC50, cell viability 72 h [6] [nM]	IC50, cell viability 72 h [7] [nM]	IC50, cell viability 72 h [8] [nM]	IC50, cell viability 72 h [9] [nM]	IC50, cell viability 72 h [10] [nM]	IC50, cell viability 72 h [11] [nM]	IC50, cell viability 72 h [12] [nM]	IC50, cell viability 72 h [13] [nM]	IC50, cell viability 72 h [14] [nM]	IC50, cell viability 72 h [15] [nM]	IC50, cell viability 72 h [16] [nM]	IC50, cell viability 72 h [17] [nM]	IC50, cell viability 72 h [18] [nM]	IC50, cell viability 72 h [19] [nM]	IC50, cell viability 72 h [20] [nM]	IC50, cell viability 72 h [21] [nM]	IC50, cell viability 72 h [22] [nM]	IC50, cell viability 72 h [23] [nM]	IC50, cell viability 72 h [24] [nM]	IC50, cell viability 72 h [25] [nM]	IC50, cell viability 72 h [26] [nM]	IC50, cell viability 72 h [27] [nM]	IC50, cell viability 72 h [28] [nM]	IC50, cell viability 72 h [29] [nM]	IC50, cell viability 72 h [30] [nM]	IC50, cell viability 72 h [31] [nM]	IC50, cell viability 72 h [32] [nM]	IC50, cell viability 72 h [33] [nM]	IC50, cell viability 72 h [34] [nM]	IC50, cell viability 72 h [35] [nM]
NKM-1 (Acute Myeloid Leukemia)	2370	102	455	496	147	7.73	> 3000	2700	8120	49.3	3190	177	502	2030	24.1	855	83.3	1250	> 1000	> 10000	2000	59.4	> 10000	201	4420	> 10000	> 10000	3.66	15	> 300	2.01	1270	> 1	1860	5.13
COLO-684 (Endometrial Carcinoma)	5200	> 1000	701	> 10000	> 2000	> 1000	> 3000	> 10000	4510	> 1000	> 20000	> 10000	> 1000	> 10000	> 1000	7210	> 1000	> 10000	> 1000	> 10000	> 5000	578	> 10000	4200	> 10000	> 10000	> 10000	558	19.9	> 300	228	8930	> 1	4440	134
OV-90 (Ovarian Carcinoma)	> 10000	> 1000	> 3000	> 10000	> 2000	> 1000	> 3000	7810	> 10000	> 1000	> 20000	> 10000	> 1000	> 10000	> 1000	> 10000	83.7	> 10000	> 1000	> 10000	1880	> 1000	> 10000	> 10000	> 10000	> 10000	> 10000	> 3000	523	> 300	265	> 10000	> 1	> 10000	> 300
CML-T1 (Chronic Myelogenous Leukemia)	588	585	429	92.6	< 2	54.1	> 3000	4000	7380	> 1000	19500	142	> 1000	692	62.8	2050	262	222	> 1000	> 10000	> 5000	> 1000	> 10000	> 10000	5750	> 10000	> 10000	4.8	6.27	> 300	0.718	> 10000	> 1	1110	12.5
PANC-02-03 (Pancreatic Carcinoma)	> 10000	> 1000	1790	> 10000	> 2000	> 1000	> 3000	> 10000	> 10000	> 1000	> 20000	> 10000	> 1000	> 10000	> 1000	> 10000	259	> 10000	> 1000	> 10000	2930	494	> 10000	> 10000	> 10000	> 10000	> 10000	1670	405	> 300	137	> 10000	> 1	> 10000	> 300
